What all share (type): cell-based
For one test, the target named is T1, OR10A3 (Homo sapiens, UniProt P58181).
T1 construct: Class II OR library members with modified C-terminal domains; expressed in transfected cells
T1 sequence (P58181 with tags, fused parts or gaps): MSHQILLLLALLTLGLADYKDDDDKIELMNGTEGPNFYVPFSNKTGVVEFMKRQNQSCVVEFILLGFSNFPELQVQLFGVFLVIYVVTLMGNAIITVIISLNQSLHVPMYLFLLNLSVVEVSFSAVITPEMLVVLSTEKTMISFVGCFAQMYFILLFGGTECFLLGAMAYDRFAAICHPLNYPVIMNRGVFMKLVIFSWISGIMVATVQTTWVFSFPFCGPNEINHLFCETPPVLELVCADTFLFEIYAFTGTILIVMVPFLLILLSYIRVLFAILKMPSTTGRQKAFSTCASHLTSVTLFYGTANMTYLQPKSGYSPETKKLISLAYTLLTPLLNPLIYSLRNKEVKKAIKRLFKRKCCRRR
Kind of test: Dose-response test of single lactones on OR10A3 (luciferase). The procedure:
(§1) In a subsequent de-convultion experiment, the single ingredients were tested in a dose-response test on all the identified OR. […] Thus, OR2AP1 and OR2J2 are particularly strongly activated by the long-chain dodecalactone gamma, while OR10A3 is very sensitive to several longer chain lactones. […] Among the five OR, OR10A3 is the most sensitive.

The target of the next test is T2, OR8K3 (Homo sapiens, UniProt Q8NH51, D295E/L122R/Y298D).
T2 construct: Improved functional expression of modified OR-genes containing the truncated, optimized C-terminus; expressed in transfected cells; host or cells: HEK293T stably expressing human RTP1S(V227I) and RTP2(L220R)
T2 sequence (Q8NH51 with tags, fused parts or gaps L122R/D295E/Y298D): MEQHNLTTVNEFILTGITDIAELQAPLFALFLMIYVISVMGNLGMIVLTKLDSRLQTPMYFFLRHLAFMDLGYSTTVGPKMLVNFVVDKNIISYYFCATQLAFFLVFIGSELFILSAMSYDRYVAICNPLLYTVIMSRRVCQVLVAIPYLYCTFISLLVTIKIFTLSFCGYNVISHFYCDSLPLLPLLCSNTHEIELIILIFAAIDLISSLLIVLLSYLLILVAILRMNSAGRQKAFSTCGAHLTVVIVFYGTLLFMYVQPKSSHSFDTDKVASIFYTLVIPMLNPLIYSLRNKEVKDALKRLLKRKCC
Kind of test: cell-based.

The target in a further test is T3, OR2J2 (Homo sapiens, UniProt O76002, A146V/A218T/A302I/G300K/H297E/H74Y).
T3 construct: expressed in transfected cells; transient transfection of pcDNA3.1(+) OR plasmid
T3 sequence (O76002 with tags, fused parts or gaps H74Y/A146V/A218T/H297E/G300K/A302I limits assumed): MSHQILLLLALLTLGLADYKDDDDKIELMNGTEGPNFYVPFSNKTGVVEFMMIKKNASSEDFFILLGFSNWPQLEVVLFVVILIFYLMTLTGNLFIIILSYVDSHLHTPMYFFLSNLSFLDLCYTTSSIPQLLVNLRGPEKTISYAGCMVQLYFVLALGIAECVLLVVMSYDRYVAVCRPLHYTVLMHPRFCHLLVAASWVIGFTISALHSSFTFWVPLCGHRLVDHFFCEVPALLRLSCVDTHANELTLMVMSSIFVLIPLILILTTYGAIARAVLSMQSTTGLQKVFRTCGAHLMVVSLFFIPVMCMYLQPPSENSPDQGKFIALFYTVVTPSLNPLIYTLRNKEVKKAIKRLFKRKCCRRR
Kind of test: Dose-response test of single lactones on OR2J2. The procedure:
as §1

Another test addresses T4, OR10J1(M51I, I92M) (Homo sapiens, UniProt P30954, I103M/M62I).
T4 construct: expressed in transfected cells; transient transfection of pcDNA3.1(+) OR plasmid
T4 sequence (P30954 with tags, fused parts or gaps M62I/I103M): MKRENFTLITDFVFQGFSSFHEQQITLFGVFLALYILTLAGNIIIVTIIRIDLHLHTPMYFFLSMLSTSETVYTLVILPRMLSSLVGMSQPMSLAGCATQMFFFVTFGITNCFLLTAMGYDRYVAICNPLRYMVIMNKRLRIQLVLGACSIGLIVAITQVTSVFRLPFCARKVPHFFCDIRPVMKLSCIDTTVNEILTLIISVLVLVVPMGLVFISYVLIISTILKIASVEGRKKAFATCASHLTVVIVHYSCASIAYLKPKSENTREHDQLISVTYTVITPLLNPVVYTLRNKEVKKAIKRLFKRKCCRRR
Kind of test: Dose-response test of single lactones on OR10J1(M51I, I92M). The procedure:
as §1

Test [1] has as its target T5, OR10A6(A117V, V140G, L287P) (Homo sapiens, UniProt Q8NH74, A117V/L287P/V140G).
T5 construct: expressed in transfected cells; transient transfection of pcDNA3.1(+) OR plasmid
T5 sequence (Q8NH74 with tags, fused parts or gaps A117V/V140G/L287P limits assumed): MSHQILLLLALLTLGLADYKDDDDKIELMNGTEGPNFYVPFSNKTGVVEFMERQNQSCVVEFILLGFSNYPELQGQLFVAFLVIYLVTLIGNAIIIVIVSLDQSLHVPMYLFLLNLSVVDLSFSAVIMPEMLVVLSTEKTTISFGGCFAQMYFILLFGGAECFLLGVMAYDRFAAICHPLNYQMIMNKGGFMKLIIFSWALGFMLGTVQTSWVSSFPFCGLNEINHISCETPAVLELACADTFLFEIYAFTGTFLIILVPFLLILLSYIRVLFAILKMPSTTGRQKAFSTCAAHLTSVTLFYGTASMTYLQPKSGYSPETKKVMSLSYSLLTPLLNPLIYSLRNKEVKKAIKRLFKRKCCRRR
Kind of test: Dose-response test of single lactones on OR10A6(A117V, V140G, L287P). The procedure: as §1

As to `CCCC1CCC(=O)O1` (stereo not shown) [Heptalactone gamma], the “EC10, concentration for 10-fold OR activation” value on OR10A3 worked out at 298.04 μM.

Turning to `CC1CCC(C(C)C)C(O)C1` (stereo not shown) [Menthol], the Comments on efficacy on OR8K3 is on record as 3-fold lower. In addition, the “functional response of chimeric OR8K3” value at OR8K3 (C-terminal sequence of OR1N2 or OR5AN1) is “did not show any functional response”. The concentration giving a half-maximal response (EC50) on OR8K3 (changed C-term. SEQ ID NO: 86) was found to be 115 µM. On OR8K3 (changed C-term. vs wild-type), this compound had a Fold-improvement potency of 2 and a Fold-improvement threshold of 14.4. A half-maximal response on OR8K3 (wild-type) (EC50) required 236 µM.

As to `CCCCCC1CCC(=O)O1` (stereo not shown) [Nonalactone gamma], the “EC2 (concentration for 2-fold luciferase induction)” value at OR2J2 was 12.85 µM; at OR10J1(M51I, I92M), 11.14 µM; in test [1], 11.34 µM. Further, the “EC10, concentration for 10-fold OR activation” value on OR10A3 came out at 2.83 μM.

Turning to `CCCCC1CCC(=O)O1` (stereo not shown) [Octalactone gamma], the “EC2 (concentration for 2-fold luciferase induction)” value on OR2J2 turned out to be 65.20 µM; on OR10J1(M51I, I92M), 101.73 µM. Further, at OR10A3, the “EC10, concentration for 10-fold OR activation” value worked out at 26.93 μM.

Turning to `CC(C)[C@@H]1CC[C@@H](C)CC1=O` [menthone], the “activation of the modified receptor variant” value on OR8K3 (OR8K3, SEQ ID NO: 86) is reported as “also activating the receptor, although with a lower potency”. For the same compound, the “inactive up to concentration” value on OR8K3 (wild-type OR8K3) is over 316 µM.

By EC50 is commonly meant the concentration at which the effect is half-maximal.

The values above are taken from patent US20260210939A1, “MODIFIED OLFACTORY RECEPTORS” (GIVAUDAN SA, priority 2022, published 2026).
